Holding throughout (type): in vivo
For data set [1], the system named is cotton aphids (Aphis gossypii). Kind of data set: Test Method 1: cotton aphid foliar spray, cucumber seedlings (Formulation Example 1). Conditions: 500 ppm; spray 10 mL/seedling; 5 days after spraying; 25 °C. How it is done:
(§1) Each test compound is formulated according to the method mentioned in Formulation Example 1 to obtain each formulation, and water containing 0.03% by volume of Shindaine (registered trademark) is added thereto to prepare a diluted solution containing a prescribed concentration of each test compound.
Approximately 30 cotton aphids (Aphis gossypii) (all stages of life) are released onto cucumber (Cucumis sativus) seedlings (on the developmental stage of the second true leaf) planted in a container. After 1 day, each of the diluted solutions is sprayed over the seedlings in a ratio of 10 mL/seedling. After additional 5 days, the number of the surviving insects is examined and the control value is calculated by the following equation.
(§2) Control value (%)={1−(Cb×Tai)/(Cai×Tb)}×100 • where symbols in the equation represent the following meanings: • Cb: Number of test insects in non-treated area; • Cai: Number of surviving insects at the time of the investigation in non-treated area; • Tb: Number of test insects in treated area; and • Tai: Number of surviving insects at the time of the investigation in treated area.
(§3) Here, the “non-treated area” represents an area where the same treatment procedure as that of the treated area is carried out except for not using each test compound.
The test was carried out by making the prescribed concentration 500 ppm and using the following present compounds as a test compound according to the test method 1.

The subject of data set [2] is common cutworm (Spodoptera litura). In words: Test Method 3: common cutworm on sprayed cabbage, 2nd instar larvae. Conditions: 500 ppm, spray 20 mL/seedling, 5 days, 25 °C. How it is done: as §1
Each of the diluted solutions is sprayed over cabbage (Brassicae oleracea) seedlings (on the developmental stage of the second to third true leaf) planted in a container in a ratio of 20 mL/seedling. Thereafter, the stem and leaf of the seedlings are cut out, and placed in a container lined with a filter paper. Five 2nd instar larvae of common cutworm (Spodoptera litura) are released into the container. After 5 days, the number of the surviving insects is counted, and the mortality of insects is calculated by the following equation.
(§4) Mortality (%)=(1−Number of surviving insects/5)×100
The test was carried out by making the prescribed concentration 500 ppm and using the following present compounds as a test compound according to the test method 3.

In data set [3] the test system is diamondback moth (Plutella xylostella). In words: Test Example 4 (test method 4): diamondback moth on sprayed cabbage, 2nd instar larvae. Particulars: 500 ppm, spray 20 mL/seedling, 5 days, 25 °C. How it is done:
as §1
Each of the diluted solutions is sprayed over cabbage (Brassicae oleracea) seedlings (on the developmental stage of the second to third true leaf) planted in a container in a ratio of 20 mL/seedling. Thereafter, the stem and leaf of the seedlings are cut out, and placed in a container lined with a filter paper. Five 2nd instar larvae of diamondback moth (Plutella xylostella) are released into the container. After 5 days, the number of the surviving insects is counted, and the mortality of insects is calculated by the following equation.
as §4
The test was carried out by making the prescribed concentration 500 ppm and using the following present compounds as a test compound according to the test method 4.

For data set [4], the system named is western corn rootworm (Diabrotica virgifera virgifera). Kind of data set: Test Method 5: western corn rootworm on immersed corn seedlings. Conditions: 200 ppm; seedlings immersed 30 seconds; 2nd instar larvae; 5 days; 25 °C. How it is done:
Each test compound is dissolved in 50 μL of a mixed solution of polyoxyethylene sorbitan monococoate and acetone (at a volume ratio of 5:95) per 1 mg of the test compound. Water containing 0.03% by volume of Shindaine (registered trademark) is added thereto to prepare a diluted solution containing a prescribed concentration of each test compound.
Young seedlings of corns (Zea mays) are immersed in each of the diluted solutions for 30 seconds. Thereafter, two seedlings are placed in a petri dish (diameter: 90 mm), and ten 2nd instar larvae of western corn rootworm (Diabrotica virgifera virgifera) are released into the dish. After 5 days, the number of the dead insects is counted, and the mortality of insects is calculated by the following equation.
Mortality (%)=(1−Number of dead insects/10)×100
The test was carried out by making the prescribed concentration 200 ppm and using the following present compounds as a test compound according to the test method 5.

Data set [5] has as its system German cockroach (Blattella germanica). In words: Test Method 6: German cockroach, coated container contact. Particulars: coating amount 40 mg/m^2; male adults; 3 days; 25 °C. How it is done:
An acetone solution prepared by making the concentration of the test compound 800 ppm is poured into a 50 mL container, and the inner face of the container is uniformly coated with the test compound so as to make the coating amount of 40 mg/m^2, followed by drying.
Five German cockroach (Blattella germanica) male adults are released into the container, and the container is then covered with a lid. After the prescribed time is elapsed, the state of the German cockroach are examined. The mortality of insects is calculated by the following equation.
(§5) Mortality (%)=(Number of dead insects/Number of tested insects)×100
The test was carried out by making the prescribed elapsed time 3 days and using the following present compounds as a test compound according to the test method 6.

Data set [6] deals with houseflies (Musca domestica). In words: Test Method 8: housefly, coated container contact. Particulars: coating amount 40 mg/m^2; adult males; 1 day; 25 °C. How it is done: An acetone solution prepared by making the concentration of the test compound 800 ppm is poured into a 20 mL container, and the inner face of the container is uniformly coated with the test compound so as to make the coating amount of 40 mg/m^2, followed by drying.
Five adult male houseflies (Musca domestica) are released into the container, and the container is then covered with a lid. After the prescribed time is elapsed, the state of the houseflies are examined. The mortality of insects is calculated by the following equation.
as §5
The test was carried out by making the prescribed elapsed time 1 day and using the following present compounds as a test compound according to the test method 8.

For data set [7], the system named is common cutworm (Spodoptera litura). In words: Test Method 9: common cutworm on sprayed cabbage, 3rd instar larvae (Formulation Example 5). Particulars: 200 ppm, spray 20 mL/seedling, 6 days, 25 °C. How it is done: (§6) Each test compound is formulated according to the method mentioned in Formulation Example 5 to obtain each formulation, and water containing 0.03% by volume of Shindaine (registered trademark) is added thereto to prepare a diluted solution containing a prescribed concentration of each test compound.
Each of the diluted solutions is sprayed over cabbage (Brassicae oleracea) seedlings (on the developmental stage of the third to fourth true leaf) planted in a container in a ratio of 20 mL/seedling. Thereafter, ten 3rd instar larvae of common cutworm (Spodoptera litura) are released into the container. After 6 days, the number of the surviving insects is counted and the mortality of insects is calculated by the following equation.
(§7) Mortality (%)=(1−Number of surviving insects/10)×100
The test was carried out by making the prescribed concentration 200 ppm and using the following present compounds as a test compound according to the test method 9.
The test is carried out by making the prescribed concentration 50 ppm and using the following present compounds as a test compound according to the test method 9. As a result of the test, it is possible to confirm an insecticidal effect on common cutworm (Spodoptera litura).

Data set [8] concerns diamondback moth (Plutella xylostella). In words: Test Method 10: diamondback moth on sprayed cabbage, 3rd instar larvae (Formulation Example 5). Particulars: spray 20 mL/seedling, 5 days, 25 °C. How it is done:
as §6
Each of the diluted solutions is sprayed over cabbage (Brassicae oleracea) seedlings (on the developmental stage of the third to fourth true leaf) planted in a container in a ratio of 20 mL/seedling. Thereafter, ten 3rd instar larvae of diamondback moth (Plutella xylostella) are released into the container. After 5 days, the number of the surviving insects is counted, and the mortality of insects is calculated by the following equation.
as §7
The test was carried out by making the prescribed concentration 200 ppm and using the following present compounds as a test compound according to the test method 10.
The test was carried out by making the prescribed concentration 50 ppm and using the following present compounds as a test compound according to the test method 10.

For data set [9], the system named is cotton aphids (Aphis gossypii). Kind of data set: Test Method 11: cotton aphid foliar spray, cucumber seedlings (Formulation Example 5). Conditions: spray 10 mL/seedling, 5 days after spraying, 25 °C. How it is done: as §6
Approximately thirty cotton aphids (Aphis gossypii) (all stages of life) are released onto cucumber (Cucumis sativus) seedlings (on the developmental stage of the second true leaf) planted in a container. After 1 day, each of the diluted solutions is sprayed over the seedlings in a ratio of 10 mL/seedling. After additional 5 days, the number of the surviving insects is examined and the control value is calculated by the following equation.
as §2, §3
The test was carried out by making the prescribed concentration 200 ppm and using the following present compounds as a test compound according to the test method 11.
The test was carried out by making the prescribed concentration 50 ppm and using the following present compounds as a test compound according to the test method 11.

The test system of data set [10] is common house mosquito (Culex pipiens pallens). Kind of data set: Test Method 12: common house mosquito larvae in diluted solution. Conditions: 3.5 ppm; final instar larvae; 1 day; 25 °C. How it is done: Each test compound is formulated according to the method mentioned in Formulation Example 1 to obtain each formulation, and water is added thereto to prepare a diluted solution containing a prescribed concentration of each test compound. […]
The test was carried out by making the prescribed concentration 3.5 ppm and using the following present compounds as a test compound according to the test method 12.

Consider three compounds from patent US20260327222A1, “SULFONAMIDE COMPOUND AND HARMFUL-ARTHROPOD-CONTROLLING COMPOSITION CONTAINING SAME” (SUMITOMO CHEMICAL COMPANY, LIMITED, priority 2022, published 2026).

In general, mortality refers to the share of the test organisms that died. The low end stands for more survivors, the high end for fewer survivors. As for `CNS(=O)(=O)c1c(-c2cnc(OCC(F)(F)C(F)(F)F)cn2)nc2ccc(Br)cn12` [compound 1], the control value in data set [1], in data set [9] (50 ppm) and in data set [9] (200 ppm) was not below 90% throughout. The mortality in [2], in data set [3], in data set [4], in data set [7], in data set [8] (50 ppm) and in data set [8] (200 ppm) was not below 80% in each case. Besides, in data set [10], the mortality is given as not below 90%. For the same compound, the mortality of insects in [5] and in [6] was not below 80% each time.
Regarding `CCNS(=O)(=O)c1c(-c2cnc(OCC(F)(F)C(F)(F)F)cn2)nc2ccc(Br)cn12` [compound 2], the control value in data set [1], in data set [9] (50 ppm) and in data set [9] (200 ppm) was not below 90% each time. In addition, the mortality in [2], in [3], in data set [4], in data set [7], in [8] (50 ppm) and in data set [8] (200 ppm) was not below 80% each time. The compound further had a mortality in data set [10] not below 90%. Also, the mortality of insects in data set [5] and in [6] was not below 80% each time.
The compound `CN(C)S(=O)(=O)c1c(-c2ccc(OCC(F)(F)C(F)F)nn2)nc2ccc(I)cn12` [compound 4] displayed a control value in data set [1] not below 90%. Also, the mortality in [2], in [3], in data set [7], in data set [8] (50 ppm) and in [8] (200 ppm) was not below 80% in each case.
